The target of one assay is T1, HER2 (Homo sapiens, UniProt P04626).
T1 construct: GST (Glutathione-S-Transferase) (N); HIS6 (N); thrombin cleavage site (N); purchased Proqinase, Freiburg, Germany
The assay can be described thus: HER2 kinase screening assay (33P-ATP FlashPlate).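 Note: Biotin-poly(GT) 4:1 peptide captured on streptavidin FlashPlate, 33P transfer from γ-ATP read by scintillation counting, lower incorporation means inhibition, 1% DMSO final, 100 µL reaction.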 It is filed as biochemical. The settings on record: GST-HIS6 HER-2 aa 679 to 1255; 10 μM ATP; 1 hr at 30° C.

Another assay has as its target T2, CDK1 (Homo sapiens, UniProt P06493).
T2 construct: purchased New England Biolabs, Beverly, Mass; 6020; host or cells: insect cells
The assay is described as follows: CDK-1 kinase screening assay (33P-ATP FlashPlate). It counts as biochemical. The settings on record: human CDK1 with cyclin B; 10 μM ATP; 1 hr at 30° C.

In assay [1] the test system is HeLa cervical adenocarcinoma. The assay can be described thus: Cell Proliferation Inhibition Assay (14C-thymidine incorporation), HeLa.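 Note: test compound in DMSO added to cells seeded in scintillating 96-well plates, DMSO-only wells as control, uptake of methyl 14C-thymidine into new DNA counted.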 It is filed as cell-based. As to conditions: Homo sapiens, HeLa, HeLa cells.

Molecules are shown by their SMILES.

T2 sequence (P06493 whole entry): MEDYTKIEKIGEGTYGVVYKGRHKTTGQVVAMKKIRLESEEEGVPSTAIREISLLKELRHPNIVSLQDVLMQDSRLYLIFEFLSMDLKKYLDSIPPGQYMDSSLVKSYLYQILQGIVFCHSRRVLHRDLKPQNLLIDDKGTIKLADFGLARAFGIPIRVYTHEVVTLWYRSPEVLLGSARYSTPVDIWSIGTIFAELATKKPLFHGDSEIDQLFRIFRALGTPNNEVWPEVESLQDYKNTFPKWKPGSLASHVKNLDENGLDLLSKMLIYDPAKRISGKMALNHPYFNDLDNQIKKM
T2 sequence (P14635 whole entry partner): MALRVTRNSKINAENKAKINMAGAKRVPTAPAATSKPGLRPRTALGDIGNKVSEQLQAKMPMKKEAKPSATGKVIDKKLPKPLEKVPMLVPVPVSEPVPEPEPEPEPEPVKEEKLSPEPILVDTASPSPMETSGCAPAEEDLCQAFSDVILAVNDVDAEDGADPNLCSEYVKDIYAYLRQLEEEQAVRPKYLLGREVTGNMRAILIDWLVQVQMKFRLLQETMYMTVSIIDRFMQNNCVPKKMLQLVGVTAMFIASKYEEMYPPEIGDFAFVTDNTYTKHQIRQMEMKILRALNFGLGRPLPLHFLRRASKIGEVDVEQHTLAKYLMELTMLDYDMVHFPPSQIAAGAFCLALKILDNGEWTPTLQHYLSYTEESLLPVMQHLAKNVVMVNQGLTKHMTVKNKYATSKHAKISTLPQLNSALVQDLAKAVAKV
T1 sequence (P04626 679-1255): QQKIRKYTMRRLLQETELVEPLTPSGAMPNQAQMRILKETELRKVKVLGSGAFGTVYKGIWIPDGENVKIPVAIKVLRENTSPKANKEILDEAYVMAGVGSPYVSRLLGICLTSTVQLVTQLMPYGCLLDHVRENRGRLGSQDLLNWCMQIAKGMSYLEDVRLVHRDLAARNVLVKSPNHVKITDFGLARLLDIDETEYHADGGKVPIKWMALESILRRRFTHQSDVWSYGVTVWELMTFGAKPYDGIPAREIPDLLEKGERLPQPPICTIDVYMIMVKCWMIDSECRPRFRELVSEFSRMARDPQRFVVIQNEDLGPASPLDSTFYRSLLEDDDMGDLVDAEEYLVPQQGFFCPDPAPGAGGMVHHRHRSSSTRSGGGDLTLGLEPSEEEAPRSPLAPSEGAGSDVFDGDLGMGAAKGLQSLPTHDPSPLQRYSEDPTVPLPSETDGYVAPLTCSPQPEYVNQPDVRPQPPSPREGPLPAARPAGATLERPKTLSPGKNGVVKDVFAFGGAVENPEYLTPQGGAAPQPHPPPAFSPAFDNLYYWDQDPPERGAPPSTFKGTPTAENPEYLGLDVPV

A word on the IC50: it is the concentration needed to halve the response being measured. A higher IC50 goes with weaker potency. As for `CCNCc1cncc(-c2cnc3[nH]nc(-c4nc5cc(OC)ccc5[nH]4)c3c2)c1` [Cpd 101, ethyl-{5-[3-(5-methoxy-1H-benzoimidazol-2-yl)-1H-pyrazolo[3,4-b]pyridin-5-yl]-pyridin-3-ylmethyl}-amine], the IC50 at HER2 worked out at 4170 nM; on CDK1 it was 0.8 nM; in assay [1] it was 34.2 nM.
For the molecule `CNCc1cncc(-c2cnc3[nH]nc(-c4nc5cc(OC(F)(F)F)ccc5[nH]4)c3c2)c1` [Cpd 96, methyl-{5-[3-(5-trifluoromethoxy-1H-benzoimidazol-2-yl)-1H-pyrazolo[3,4-b]pyridin-5-yl]-pyridin-3-ylmethyl}-amine], the IC50 is 3820 nM against HER2 and 0.9 to 1.3 nM against CDK1.
